This is an account of results in PubChem BioAssay AID200 (DTP/NCI, 2004).

Structures are written as SMILES. Values joined by “and” are separate entries in the source; they are usually repeats but may differ in a detail not shown here. Equal entries are not always repeated. Inconclusive results and toxic doses are left out. Where a SMILES comes first, the peptide text is derived from it. The star is where a group is joined. Cbz = O=C(OCc1ccccc1)*

The test concerns B6C3F1 mice, B16 melanoma ip, median survival T/C. Put plainly: NCI In Vivo Anticancer Drug Screen. Data for tumor model B16 Melanoma (intraperitoneal) in B6C3F1 mice. The note with it: endpoint: median survival time, higher = longer survival. In a few lines:
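Tumor-bearing mice received test compound; a separate group got vehicle only. Survival was then compared, with results reported as treated over control.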

The mark [1] stands for this setting: dose: 12.5 mg/kg/injection, schedule: Q01DX009 (ip), vehicle: Klucel (hydroxypropylcellulose) (HPC).
The mark [2] stands for this setting: dose: 25.0 mg/kg/injection, schedule: Q01DX009 (ip), vehicle: Klucel (hydroxypropylcellulose) (HPC).
The mark [3] stands for this setting: dose: 50.0 mg/kg/injection, schedule: Q01DX009 (ip), vehicle: Klucel (hydroxypropylcellulose) (HPC).
Where [4] appears, read: dose: 100.0 mg/kg/injection, schedule: Q01DX009 (ip), vehicle: Klucel (hydroxypropylcellulose) (HPC).
Where [5] appears, read: dose: 200.0 mg/kg/injection, schedule: Q01DX009 (ip), vehicle: Klucel (hydroxypropylcellulose) (HPC).

As for `NS(=O)(=O)OCCCCCCCOS(N)(=O)=O`, the T/C by setting is: (dose: 12.5 mg/kg/injection, schedule: Q01DX009 (ip), vehicle: saline with Tween-80) 115 % of control; (dose: 50.0 mg/kg/injection, schedule: Q01DX009 (ip), vehicle: saline with Tween-80) 171 % of control.
Regarding `COC(=O)[C@@]12OC[C@]34[C@H]([C@@H](O)[C@@H]1O)[C@@]1(C)CC(=O)C(O)=C(C)[C@@H]1C[C@H]3OC(=O)[C@H](OC(=O)/C=C(\C)C1(C)CO1)[C@@H]24` (some centres not stated), the T/C by setting is: (dose: 0.01 mg/kg/injection, schedule: Q01DX009 (ip), vehicle: saline + alcohol) 108 % of control; (dose: 0.03 mg/kg/injection, schedule: Q01DX009 (ip), vehicle: saline + alcohol) 116 % of control.
With `C=C(OP(=O)(OC)OC)Sc1ccccc1C`, the T/C reads like this: (dose: 0.06 mg/kg/injection, schedule: Q01DX009 (ip), vehicle: Klucel (hydroxypropylcellulose) (HPC)) 94 % of control; (dose: 0.12 mg/kg/injection, schedule: Q01DX009 (ip), vehicle: Klucel (hydroxypropylcellulose) (HPC)) 102 % of control; (dose: 0.25 mg/kg/injection, schedule: Q01DX009 (ip), vehicle: Klucel (hydroxypropylcellulose) (HPC)) 104 % of control; (dose: 0.38 mg/kg/injection, schedule: Q01DX009 (ip), vehicle: Klucel (hydroxypropylcellulose) (HPC)) 121 % of control; (dose: 0.5 mg/kg/injection, schedule: Q01DX009 (ip), vehicle: Klucel (hydroxypropylcellulose) (HPC)) 100 % of control; (dose: 0.75 mg/kg/injection, schedule: Q01DX009 (ip), vehicle: Klucel (hydroxypropylcellulose) (HPC)) 107 % of control.
For the molecule `CCc1ccc(C2=C(O)C(=O)C(c3ccccc3)=C(O)C2=O)cc1`, the T/C is 112 % of control (dose: 3.12 mg/kg/injection, schedule: Q01DX009 (ip), vehicle: Klucel (hydroxypropylcellulose) (HPC)); 106 % of control (dose: 6.25 mg/kg/injection, schedule: Q01DX009 (ip), vehicle: Klucel (hydroxypropylcellulose) (HPC)); 108 % of control under setting [1]; 114 % of control under setting [2]; 114 % of control under setting [3]; 108 % of control under setting [4].
In the case of `CCOc1cc2c(cc1C(C)c1ccc(OC)cc1)OCO2` (configuration not stated), the T/C runs as follows: (dose: 12.5 mg/kg/injection, schedule: Q01DX009 (ip), vehicle: distilled water + alcohol) 116 % of control; (dose: 25.0 mg/kg/injection, schedule: Q01DX009 (ip), vehicle: distilled water + alcohol) 113 % of control; (dose: 50.0 mg/kg/injection, schedule: Q01DX009 (ip), vehicle: distilled water + alcohol) 102 % of control; (dose: 100.0 mg/kg/injection, schedule: Q01DX009 (ip), vehicle: distilled water + alcohol) 98 % of control; (dose: 200.0 mg/kg/injection, schedule: Q01DX009 (ip), vehicle: distilled water + alcohol) 108 % of control.
As to `C[Si](C)(C)O/C=C1/CCOC1=O`, the T/C was 104 % of control under setting [1]; 93 % of control under setting [2]; 95 % of control under setting [3]; 95 % of control under setting [4]; 106 % of control under setting [5].
With `CCOC(=O)C(Cc1ccc(O)cc1)NC(=O)c1ccccc1` (configuration not stated), the T/C (dose: 40.0 mg/kg/injection, schedule: Q01DX009 (ip), vehicle: saline with Tween-80) is 116 % of control; the T/C (dose: 80.0 mg/kg/injection, schedule: Q01DX009 (ip), vehicle: saline with Tween-80) was 96 % of control; the T/C (dose: 160.0 mg/kg/injection, schedule: Q01DX009 (ip), vehicle: saline with Tween-80) was 112 % of control; the T/C (dose: 320.0 mg/kg/injection, schedule: Q01DX009 (ip), vehicle: saline with Tween-80) was 96 % of control; the T/C (dose: 640.0 mg/kg/injection, schedule: Q01DX009 (ip), vehicle: saline with Tween-80) is 101 % of control.
For the molecule `Cn1nnc2c(C(N)=O)ncn2c1=O`, the T/C reads like this: (dose: 12.5 mg/kg/injection, schedule: Q01DX009 (ip), vehicle: suspension in saline) 113 % of control; (dose: 50.0 mg/kg/injection, schedule: Q01DX009 (ip), vehicle: suspension in saline) 167 % of control; (dose: 100.0 mg/kg/injection, schedule: Q01DX009 (ip), vehicle: saline) 181 % of control; (dose: 100.0 mg/kg/injection, schedule: Q01DX009 (ip), vehicle: suspension in saline) 206 % of control.
Regarding `COC1=Nc2ccccc2N2CCN=C12`, the T/C reads like this: (dose: 6.25 mg/kg/injection, schedule: Q04DX003 (ip), vehicle: saline with Tween-80) 103 % of control; (dose: 12.5 mg/kg/injection, schedule: Q04DX003 (ip), vehicle: saline with Tween-80) 106 % of control; (dose: 25.0 mg/kg/injection, schedule: Q04DX003 (ip), vehicle: saline with Tween-80) 96 % of control; (dose: 50.0 mg/kg/injection, schedule: Q04DX003 (ip), vehicle: saline with Tween-80) 96 % of control.
Turning to `CN(C)c1cccc(F)c1C(=O)NC(=O)Nc1ccc(Cl)cc1`, the T/C was 97 % of control (dose: 37.5 mg/kg/injection, schedule: Q01DX009 (ip), vehicle: saline with Tween-80); 111 % of control (dose: 75.0 mg/kg/injection, schedule: Q01DX009 (ip), vehicle: saline with Tween-80); 101 % of control (dose: 150.0 mg/kg/injection, schedule: Q01DX009 (ip), vehicle: saline with Tween-80).
Take `CC(C)CC(NC(=O)C(F)(F)F)C(=O)O` (configuration not stated): the T/C runs as follows: (dose: 25.0 mg/kg/injection, schedule: Q01DX009 (ip), vehicle: saline) 89 % of control; (dose: 50.0 mg/kg/injection, schedule: Q01DX009 (ip), vehicle: saline) 91 % of control.
For `Cc1ncc([N+](=O)[O-])n1CCO`, the T/C (dose: 37.5 mg/kg/injection, schedule: Q01DX009 (ip), vehicle: Klucel (hydroxypropylcellulose) (HPC)) is 103 % of control; the T/C (dose: 75.0 mg/kg/injection, schedule: Q01DX009 (ip), vehicle: Klucel (hydroxypropylcellulose) (HPC)) was 100 % of control; the T/C (dose: 150.0 mg/kg/injection, schedule: Q01DX009 (ip), vehicle: Klucel (hydroxypropylcellulose) (HPC)) is 101 % of control; the T/C (dose: 300.0 mg/kg/injection, schedule: Q01DX009 (ip), vehicle: Klucel (hydroxypropylcellulose) (HPC)) was 92 % of control; the T/C (dose: 600.0 mg/kg/injection, schedule: Q01DX009 (ip), vehicle: Klucel (hydroxypropylcellulose) (HPC)) is 100 % of control.
For the molecule `CC(=O)Nc1cc2oc3ccccc3c2cc1[N+](=O)[O-]`, the T/C reads like this: (dose: 100.0 mg/kg/injection, schedule: Q01DX009 (ip), vehicle: saline with Tween-80) 88 % of control; (dose: 400.0 mg/kg/injection, schedule: Q01DX009 (ip), vehicle: saline with Tween-80) 91 % of control.
Take `NCc1ccc(O)c(O)c1`: the T/C runs as follows: (dose: 28.13 mg/kg/injection, schedule: Q03HX024 (ip), vehicle: saline) 98 % of control; (dose: 56.25 mg/kg/injection, schedule: Q03HX024 (ip), vehicle: saline) 107 % of control; (dose: 75.0 mg/kg/injection, schedule: Q01DX009 (ip), vehicle: saline) 110 % of control; (dose: 225.0 mg/kg/injection, schedule: Q03HX024 (ip), vehicle: saline) 124 % of control; (dose: 300.0 mg/kg/injection, schedule: Q01DX009 (ip), vehicle: saline) 114 % of control and 117 % of control; (dose: 400.0 mg/kg/injection, schedule: Q01DX009 (ip), vehicle: saline) 117 % of control and 118 % of control. For the same molecule, the T/C (dose: 500.0 mg/kg/injection, schedule: Q01DX009 (ip), vehicle: saline) is 117 % of control and 91 % of control.
For the molecule `COC(=O)C(NC(=O)C(NC(=O)OCc1ccccc1)C(C)O)C(C)C` (stereo not drawn) (Cbz-Thr-Val-OMe; configuration not given here), the T/C under setting [4] is 94 % of control; the T/C under setting [5] was 93 % of control; the T/C (dose: 400.0 mg/kg/injection, schedule: Q01DX009 (ip), vehicle: Klucel (hydroxypropylcellulose) (HPC)) is 108 % of control.
In the case of `CCC(/C=C/C1OC(=O)C=CC1C)=C\C(C)C/C=C/C(C)=C/C(C)C(=O)C(C)C(O)C(C)C/C(C)=C/C(=O)O` (configuration not stated), the T/C reads like this: (dose: 6.25 micrograms/kg/injection, schedule: Q01DX009 (sc), vehicle: other) 105 % of control; (dose: 12.5 micrograms/kg/injection, schedule: Q01DX009 (ip), vehicle: other) 159 % of control; (dose: 12.5 micrograms/kg/injection, schedule: Q01DX009 (ip), vehicle: saline + alcohol) 156 % of control and 198 % of control; (dose: 12.5 micrograms/kg/injection, schedule: Q01DX009 (sc), vehicle: other) 102 % of control; (dose: 25.0 micrograms/kg/injection, schedule: Q01DX009 (ip), vehicle: saline + alcohol) 165 % of control; (dose: 25.0 micrograms/kg/injection, schedule: Q01DX009 (sc), vehicle: other) 115 % of control.
